Patent US8962244B2, “Compounds for modulating RNA binding proteins and uses therefor” (University of Massachusetts, priority 2009, dated 2015)
pIC50: −log10 of the molar value. Where two headings read alike, the source gives them in different places.

How the values were obtained:
MEX-3 = test: Fluorescence polarization screening of MEX-3 binding to fluorescein-labeled SEQ 14 RNA; settings: 192 μM test compound; 80 nM MBP-MEX-3, no zinc acetate; lowest score = greatest inhibition
MEX-5 [1] = target: T1, MEX-5 (Caenorhabditis elegans, UniProt Q9XUB2); test: Fluorescence polarization screening of MEX-5 binding to fluorescein-labeled TCR2 RNA; settings: for pIC50: further screening as described above (fluorescence polarization), dose response; for remaining activity at 192 µM: read-out: MEX-5 score
T1 construct: The fragment of mex-5 containing the TZF domain (amino acids 236-350) was amplified; made in house; host or cells: Escherichia coli JM109
T1 sequence (Q9XUB2 236-350): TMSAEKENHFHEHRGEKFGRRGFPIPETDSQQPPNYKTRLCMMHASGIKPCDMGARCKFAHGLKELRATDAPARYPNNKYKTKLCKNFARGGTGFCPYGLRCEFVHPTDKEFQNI
Text: The expression and purification of recombinant MEX-5 protein has previously been described in Pagano, J. M., Farley, B. M., McCoig, L. M. and Ryder, S. P. (2007) “Molecular basis of RNA recognition by the embryonic polarity determinant MEX-5;” J Biol Chem; 282, 8883-8894. The fragment of mex-5 containing the TZF domain (amino acids 236-350) was amplified from a commercially available ORFeome clone (Open Biosystems) and sub-cloned into the vector pMal-c (NEB), which encodes maltose binding protein as an N-terminal fusion. This construct is termed pMal-MEX-5 (236-350).
MEX-5 is expressed in Escherchia. coli JM109 liquid cultures grown at 37° C. Cultures were induced during mid log phase by the addition of 0.1 mM isopropyl 1-thio-β-D-galactopyranoside (IPTG) and allowed to grow for three hours. An amount of 100 μM zinc acetate (final concentration) was added at the time of induction. The pelleted cells were resuspended in lysis buffer (50 mM Tris pH 8.8, 200 mM NaCl, 2 mM DTT, EDTA free protease inhibitor tablet (Roche), 100 μM Zn(OAc)2) and lysed by sonication. The soluble protein was purified in three steps using standard chromatography methods: (1) amylose affinity (NEB), (2) Hi-TRAP-Q (GE Healthcare), and (3) Hi-TRAP-S (GE Healthcare). The Q buffer was composed of 50 mM Tris, pH 8.8, 20 mM-1500 mM NaCl, 2 mM DTT, and 100 μM Zn(OAc)2. The S buffer was composed of 50 mM MOPS, pH 6.0, 20 mM-1500 mM NaCl, 2 mM DTT, 100 μM Zn(OAc)2. The pure fractions, determined by coomassie-stained SDS-PAGE, were dialyzed into storage buffer (20 mM Tris, pH 8.0, 25 mM NaCl, 100 μM Zn(OAc)2, 2 mM DTT). The protein concentration was determined by measuring absorbance at 280 nm and the calculated extinction coefficient. The protein was stored at 50 μM concentration at 4° C.
All RNA oligonucleotides were chemically synthesized by Dharmacon or Integrated DNA Technologies. Upon arrival, each RNA was deprotected and stored according to the manufacturer's instructions. Prior to use, the RNA was resuspended in 10 mM Tris-HCl, pH 8.0, 0.1 mM EDTA, and the concentration determined by UV spectrophotometry using the calculated extinction coefficient at 260 nm based on the specific sequence. The sequence of the MEX-5 binding RNA (TCR2) is […] (SEQ ID NO:1). The POS-1 binding RNA (BMF018) is […] (SEQ ID NO:2). The MEX-3 binding RNA (SEQ 14) is […] (SEQ ID NO:3).
The RNA used for the small molecule screen was labeled at the 3′-end with fluorescein by Dharmacon during synthesis. In a few cases, follow up experiments were performed with post-synthetically labeled RNA. In this case, fluorescein 5-thiosemicarbazide (FTSC, Invitrogen) was used to 3′-end label each RNA after treatment with sodium periodate (see Reines, S. A. and Cantor, C. R. (1974) “New fluorescent hydrazide reagents for the oxidized 3′-terminus of RNA” Nucleic Acids Res. 1, 767-786). A representative 50 μl reaction consisted of 0.5 nanomoles RNA, 100 mM NaOAc, pH 5.1, and 5 nanomoles NaIO4. After the reaction was complete (90 minutes at room temperature), the sample was ethanol precipitated by adding 1 μl RNase free glycogen (Invitrogen 20 μg/μl), 1/20th volume of 5 M NaCl, and 2 volumes of 100% ice-cold ethanol. The resulting pellet was resuspended in 50 μl of 100 mM NaOAc, pH 5.1 containing 1 mM FTSC and was allowed to react overnight at 4° C. in the dark. The unreacted label was removed by ethanol precipitation with resuspension of the pellet in a small volume of TE, and purification over a Roche G-25 size exclusion spin column. The labeling efficiency is determined by calculating the ratio of fluorescein absorbance at 490 nm to RNA-fluorescein absorbance at 260 nm. Typical efficiencies are 60-80%.
The ability of MEX-5 to associate with RNA was monitored by fluorescence polarization using a victor V3 or victor V2V plate reader (Perkin Elmer) in 384-well FluoTrak microplates (Grenier). […]

POS-1 = target: T2, POS-1 (Caenorhabditis elegans, UniProt G5EF15); test: Fluorescence polarization screening of POS-1 binding to fluorescein-labeled BMF018 RNA; settings: read-out: POS-1 score
T2 construct: 6-his tag (N); made in house; host or cells: E. coli BL21 (DE3) Gold
T2 sequence (G5EF15 80-180): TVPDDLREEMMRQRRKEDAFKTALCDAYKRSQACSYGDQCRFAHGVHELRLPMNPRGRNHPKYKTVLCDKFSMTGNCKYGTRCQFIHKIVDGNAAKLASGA

MEX-5 [2] = target: T1, MEX-5; test: Dose response gel shift assay, MEX-5 with TCR2 RNA; type: binding; settings: 120 nM MEX-5, 2-3 nM fluorescein labeled TCR2 RNA
Procedure: A further dose response assay was performed on select compounds of the invention as described below. A sub-saturating concentration of MEX-5 or POS-1 (120 nM) was equilibrated with limiting fluorescein labeled RNA (2-3 nM, TCR2 RNA or MEX-3 UTR fragment RNA respectively) in the presence of varying concentrations of compound. Following equilibration, the reactions were loaded onto a 5% slab polyacrylamide gel and subjected to electrophoresis for about 1 hour to separate protein-RNA complex from free RNA. The gel was scanned on a FUJI FLA-5000 imager, and the fraction of bound RNA determined by dividing the intensity of the bound RNA by the intensity of the bound RNA plus the free RNA. The […] was plotted as a function of compound concentration and fit to a sigmoidal dose response function in order to determine the IC50, the concentration that gives half maximal inhibition.

[3] = 192 μM test compound, score = polarization relative to no-drug and no-protein controls, 0.25 = 75% inhibition, lowest score = greatest inhibition

| SMILES | remaining activity at 192 µM (POS-1; [3]) [%] | remaining activity at 192 µM (MEX-5 [1]; [3]) [%] | further results |
| --- | --- | --- | --- |
| Cc1ccc(C(CC(=O)N2CCCC2)c2ccco2)cc1 (stereo not shown) [FA] |  |  | MEX-3 score (MEX-3): 0.2093 |
| COc1ccc(CCNC(=O)c2ccc(C(=O)NCCc3ccc(OC)c(OC)c3)nc2)cc1OC [EX] |  |  | MEX-3 score (MEX-3): 0.0674 |
| O=C(CSc1nc2ccccc2s1)Nc1ccc(S(=O)(=O)Nc2nccs2)cc1 [DG] | 10.9 |  | pIC50 (MEX-5 [1]): 3.80; pIC50 (MEX-5 [2]): 3.77 |
| COc1ccc(Cl)cc1C(=O)Nc1ccc(S(=O)(=O)Nc2nccs2)cc1 [BK] |  | 18.4 | pIC50 (MEX-5 [1]): 3.27; pIC50 (MEX-5 [2]): 3.96 |
| O=[N+]([O-])c1cccc(/C(=N\O)Nc2nnc(-c3cccnc3)s2)c1 [EZ] |  |  | MEX-3 score (MEX-3): 0.124 |
| COc1ccc(N2C(=O)NC(=O)/C(=C/c3cccc(OC(=O)c4cccs4)c3)C2=O)cc1Cl [AV] |  |  | remaining activity at 192 µM (MEX-5 [1]): 14%; remaining activity at 192 µM (POS-1): 10.9% |
| O=C1NN(c2cccc(Br)c2)C(=O)/C1=C\c1cccc(OC(=O)c2cccs2)c1 [BI] | 10.6 | 17.9 |  |
| O=C(O)C1CCC(N2C(=O)c3c(Cl)c(Cl)c(Cl)c(Cl)c3C2=O)CC1 (stereo not shown) [AO] | 6.81 | 10.6 |  |
| Cc1ccc(O)c(NS(=O)(=O)c2ccc([N+](=O)[O-])cc2)c1 [CD] | 12.4 | 22.6 |  |
| O=c1cc(-c2ccccc2)c2ccc(O)c(O)c2o1 [I] | 0.543 | -0.142 |  |
| CCn1c(-c2cc(Br)ccc2O)n[nH]c1=S [AU] | 24.8 | 13.4 |  |
| O=S(=O)(Nc1ccc(Cl)cc1O)c1ccccc1 [D] | -3.79 | -1.58 |  |
| O=C(O)C1Nc2cc(Cl)cc(Cl)c2C2C=CCC12 (stereo not shown) [W] | 5.39 | 6.4 |  |
| O=C(O)c1ccccc1NC(=S)NC(=O)c1sc2ccccc2c1Cl [BP] | 4.54 | 19.2 |  |
| Cc1sc(NC(=O)c2cnccn2)c(C(N)=O)c1C [AZ] | 25.4 | 14.4 |  |
| COc1ccc(C(=O)NC(=S)Nc2ccc(C(=O)O)c(Cl)c2)cc1[N+](=O)[O-] [BF] | 9.05 | 16.7 |  |
| Cc1ccc(S(=O)(=O)NC(=S)NCc2cccc(Oc3ccccc3)c2)cc1 [BY] | 14.4 | 21.3 |  |
| CCOc1cc(C(NC(C)=O)c2cc([N+](=O)[O-])c3cccnc3c2O)ccc1O (stereo not shown) [AL] | 12.3 | 10.4 |  |
| COc1cc2ccccc2cc1C(=O)NC(=S)Nc1cccc(C(=O)O)c1 [BS] | 24.3 | 20 |  |
| CCCCN1C(=O)/C(=c2\sc3nc(-c4ccccc4OC(C)=O)nn3c2=O)c2ccccc21 [M] | 11.7 | 1.62 |  |

| SMILES | remaining activity at 192 µM (POS-1; [3]) [%] | remaining activity at 192 µM (MEX-5 [1]; [3]) [%] | further results |
| --- | --- | --- | --- |
| Sc1nnc(CSCc2ccccc2Cl)n1-c1ccccc1 [BL] | 27.6 | 18.8 |  |
| CCc1nnc(NS(=O)(=O)c2ccc(NC(=O)c3cc4cc(OC)ccc4oc3=O)cc2)s1 [BU] | 18.1 | 20.8 |  |
| CC(=O)NC(c1ccco1)c1cc([N+](=O)[O-])c2cccnc2c1O (stereo not shown) [Y] | 6.04 | 6.77 |  |
| Cc1nnc(NC(=O)c2cccc(C(=O)Nc3nnc(C)s3)n2)s1 [AF] | 22.7 | 8.13 |  |
| O=C(O)c1ccc(C2Nc3ccc([N+](=O)[O-])cc3C3c4ccccc4CC23)cc1 (stereo not shown) [AB] | 10.9 | 7.3 |  |
| Cc1[nH]nc(-c2ccc(O)c(O)c2O)c1-c1ccccc1 [P] | 4.3 | 3.42 |  |
| COc1ccccc1C(=O)NC(=S)Nc1ccc(C(=O)O)c(Cl)c1 [BV] | 12.2 | 21.1 |  |
| O=C(O)CCn1cc(C=C2C(=O)NC(=S)NC2=O)c(-c2cc3ccccc3oc2=O)n1 [BA] |  |  | remaining activity at 192 µM (MEX-5 [1]): 15.2%; remaining activity at 192 µM (POS-1): 22.2% |
| O=C1C2CC=C(Cl)CC2C(=O)N1c1nnc[nH]1 (stereo not shown) [DJ] | 13.8 |  | pIC50 (MEX-5 [1]): 5.46; pIC50 (MEX-5 [2]): 5.42 |
| COC(=O)c1ccccc1OC(=O)c1ccc2c(c1)C1C=CCC1C(C(=O)O)N2 (stereo not shown) [A] | 7.5 | -10.3 |  |
| O=C(O)c1cc(NC(=O)c2cccc(N3C(=O)CCC3=O)c2)cc(C(=O)O)c1 [AH] | 14.6 | 8.76 |  |
| CCOc1ccc(NS(=O)(=O)c2ccc(C)c(C(N)=O)c2)cc1 [EY] |  |  | MEX-3 score (MEX-3): 0.08965 |
| O=S(=O)(Nc1nc(-c2ccccc2)c(-c2ccccc2)o1)c1ccc(Cl)cc1 [CO] | 16 | 24.1 |  |
| O=S(=O)(Nc1ccc(O)c(NS(=O)(=O)c2ccccc2)c1)c1ccccc1 [F] | -2.79 | -0.711 |  |
| O=C1NN(c2ccccc2)C(=O)/C1=C\c1cccc(OC(=O)c2cccs2)c1 [CA] | 23 | 21.6 |  |
| Oc1ccc(-c2csc(Nc3cccc4ccccc34)n2)cc1O [AY] | 18 | 14.1 |  |
| Oc1ccc(Br)cc1-c1n[nH]c(=S)n1Cc1ccccc1 [CB] | 23.9 | 21.7 |  |
| CCOC(=O)c1sc(NC(=S)NC(=O)c2cc3ccccc3o2)c(C(=O)OCC)c1C [FB] |  |  | MEX-3 score (MEX-3): 0.2585 |
| O=C(Oc1ccc2ccccc2c1)c1ccc2c(c1)C1C=CCC1C(C(=O)O)N2 (stereo not shown) [H] | 1.95 | -0.336 |  |
